Entries after “also recorded” stand apart in the source; their conditions may differ.
Test system: all HCV genotypes
Assay: Activity against HCV genotypes in vitro
Format: cell-based

Substance: 5′-^mCs^ocsAs^otstsGs^oTs^ocsas^mCs^oas^mCs^ots^mCs^omC^o-3′ (CCATTGTCACACTCC; all phosphorothioate, sugars by position and methylation of C not given here; further chemistry not fully specified) [miravirsen]
- activity against HCV genotypes in vitro: activity against all HCV genotypes in vitro; also recorded: effective against all HCV genotypes in vitro
